The target of this test is T1, human GR (glucocorticoid receptor) (Homo sapiens, UniProt P04150).
T1 construct: expressed in transfected cells; host or cells: 293 cells
T1 sequence (P04150 1-777): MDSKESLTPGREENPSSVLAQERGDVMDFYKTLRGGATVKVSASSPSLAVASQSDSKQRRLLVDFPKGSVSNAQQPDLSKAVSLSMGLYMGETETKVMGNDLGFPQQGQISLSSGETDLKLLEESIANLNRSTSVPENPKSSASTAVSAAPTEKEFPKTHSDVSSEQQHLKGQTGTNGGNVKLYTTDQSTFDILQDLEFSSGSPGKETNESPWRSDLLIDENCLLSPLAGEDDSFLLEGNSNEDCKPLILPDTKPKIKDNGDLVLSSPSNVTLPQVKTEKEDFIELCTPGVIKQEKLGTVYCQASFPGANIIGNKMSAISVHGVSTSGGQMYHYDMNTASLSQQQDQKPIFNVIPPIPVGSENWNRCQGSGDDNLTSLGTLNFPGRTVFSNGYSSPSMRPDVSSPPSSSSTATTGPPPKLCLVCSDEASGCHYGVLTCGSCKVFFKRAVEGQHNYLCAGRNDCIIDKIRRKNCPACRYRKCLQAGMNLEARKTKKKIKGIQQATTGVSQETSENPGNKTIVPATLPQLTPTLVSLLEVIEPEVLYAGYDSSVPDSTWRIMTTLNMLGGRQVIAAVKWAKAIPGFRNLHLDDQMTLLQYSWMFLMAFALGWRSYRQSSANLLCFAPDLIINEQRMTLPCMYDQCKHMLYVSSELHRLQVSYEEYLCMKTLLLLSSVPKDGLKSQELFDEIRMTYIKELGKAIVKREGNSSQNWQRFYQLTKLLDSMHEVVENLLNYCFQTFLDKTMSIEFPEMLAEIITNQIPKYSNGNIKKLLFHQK
Put plainly: Alternative Binding Assay Protocol (Method 2), 293-GR lysate, 3H-dexamethasone competition. The following applies: 0.3 nM 3H-dexamethasone. The method, then:
Alternative Binding Assay Protocol for MR, GR, AR, and PR (Method 2):
Cell lysates from 293 cells overexpressing human GR (glucocorticoid receptor), AR (androgen receptor), MR (mineralocorticoid receptor) or PR (progesterone receptor) are used for competition binding assays to determine Ki values for test compounds. Briefly, competition binding assays are run in a buffer containing 20 mM Hepes, pH 7.6, 0.2 mM EDTA, 75 mM NaCl, 1.5 mM MgCl2, 20% glycerol, 20 mM sodium molybdate, 0.2 mM DTT, 20 ug/ml aprotinin and 20 ug/ml leupeptin, using either 0.3 nM ^3H-dexamethasone for GR binding, 0.36 nM ^3H-methyltrienolone for AR binding, 0.25 nM ^3H-aldosterone for MR binding, or 0.29 nM ^3H-methyltrienolone for PR binding, and either 20 ug 293-GR lysate, 22 ug 293-AR lysate, 20 ug 293-MR lysate or 40 ug 293-PR lysate per well. Competing compounds are added various concentrations in half-log increments. Non-specific binding is determined in the presence of 500 nM dexamethasone for GR binding, 500 nM aldosterone for MR binding, or 500 nM methyltrienolone for AR and PR binding. The binding reaction (140 μl) is incubated for overnight at 4° C. then 70 μl of cold charcoal-dextran buffer (containing per 50 ml of assay buffer, 0.75 g of charcoal and 0.25 g of dextran) is added to each reaction. Plates are mixed 8 minutes on an orbital shaker at 4° C. Plates are then centrifuged at 3,000 rpm at 4° C. for 10 minutes. An aliquot of 120 μl of the mix is transferred to another 96-well plate and 175 μl of Wallac Optiphase “Hisafe 3” scintillation fluid is added to each well. Plates are sealed and shaken vigorously on an orbital shaker. After an incubation of 2 hrs, plates are read in a Wallac Microbeta counter. The data is used to calculate an IC50 and % Inhibition at 10 μM. The Kd for ^3H-dexamethasone for GR binding, ^3H-methyltrienolone for AR binding, ^3H-aldosterone for MR binding, or ^3H-methyltrienolone for PR binding, is determined by saturation binding. The IC50 values for compounds are converted to Ki using Cheng-Prusoff equation and the Kd determined by saturation binding assay.

A value given as a limit tells only on which side of the number the result lay.

As a reminder, the Ki is the dissociation constant of the complex between target and ligand, obtained from inhibition or displacement. The compound `CC(=C1c2ccccc2Sc2ccccc21)c1cccc(NS(C)(=O)=O)c1` [Example 4, 9-[1-(3-methylsulfonoylaminophenyl)ethylene] thioxanthine] yielded a Ki of under 500 nM.

In turn, `O=c1[nH]c2ccc(C=C3c4ccc(F)cc4Sc4cc(F)ccc43)cc2[nH]1` [Example 5, 5-(3,6-Difluoro-thioxanthen-9-ylidenemethyl)-1,3-dihydro-benzoimidazol-2-one] yielded an inhibitory constant (Ki) of under 1000 nM.

On to `CC(=C1c2ccccc2Sc2ccccc21)c1cccc(N)c1` [Example 6], for which the Ki was under 500 nM.

As to `CS(=O)(=O)Nc1cccc(C=C2c3ccccc3Sc3ccccc32)c1` [Example 8], the inhibition constant (Ki) is under 500 nM.

In the case of `Nc1cccc(C=C2c3ccccc3Sc3ccccc32)c1` [Example 9], the Ki was under 1000 nM.

In turn, `O=c1[nH]c2ccc(C=C3c4ccccc4Sc4ccccc43)cc2[nH]1` [Example 10] displayed a Ki of under 10000 nM.

`O=c1[nH]c2cc(C=C3c4ccccc4Sc4ccccc43)ccc2o1` [Example 11]: the Ki is under 500 nM.

The compound `O=c1[nH]c2cc(C=C3c4ccccc4Sc4ccccc43)ccc2s1` [Example 12] returned a Ki of under 500 nM.

`O=c1[nH]c2cc(C=C3c4ccccc4Sc4ccccc43)ccc2n1CCN1CCOCC1` [Example 13] had a Ki of under 1000 nM.

Compound `CN1CCN(CCn2c(=O)[nH]c3cc(C=C4c5ccccc5Sc5ccccc54)ccc32)CC1` [Example 14] returned an inhibitory constant (Ki) of under 10000 nM.

`Oc1ccccc1C=C1c2ccccc2Sc2ccccc21` [Example 15]: the Ki is under 500 nM.

(Values after patent US7482344B2, “Tricyclic steroid hormone nuclear receptor modulators” (Eli Lilly and Company, priority 2003, dated 2009).)
